Data published in ChEMBL document CHEMBL4819062, “Novel iodinated quinazolinones bearing sulfonamide as new scaffold targeting radiation induced oxidative stress” (Bioorg Med Chem Lett, 2021).

Key:
[1] = biological target: T1, Nuclear factor erythroid 2-related factor 2 (Mus musculus) (UniProt Q60795); test: Activation of Nrf2 in mouse Hepa1c1c7 cells assessed as increase in NQO1 activity at 5 uM; assay type: cell-based; conditions: filed as activator
T1 sequence (whole entry): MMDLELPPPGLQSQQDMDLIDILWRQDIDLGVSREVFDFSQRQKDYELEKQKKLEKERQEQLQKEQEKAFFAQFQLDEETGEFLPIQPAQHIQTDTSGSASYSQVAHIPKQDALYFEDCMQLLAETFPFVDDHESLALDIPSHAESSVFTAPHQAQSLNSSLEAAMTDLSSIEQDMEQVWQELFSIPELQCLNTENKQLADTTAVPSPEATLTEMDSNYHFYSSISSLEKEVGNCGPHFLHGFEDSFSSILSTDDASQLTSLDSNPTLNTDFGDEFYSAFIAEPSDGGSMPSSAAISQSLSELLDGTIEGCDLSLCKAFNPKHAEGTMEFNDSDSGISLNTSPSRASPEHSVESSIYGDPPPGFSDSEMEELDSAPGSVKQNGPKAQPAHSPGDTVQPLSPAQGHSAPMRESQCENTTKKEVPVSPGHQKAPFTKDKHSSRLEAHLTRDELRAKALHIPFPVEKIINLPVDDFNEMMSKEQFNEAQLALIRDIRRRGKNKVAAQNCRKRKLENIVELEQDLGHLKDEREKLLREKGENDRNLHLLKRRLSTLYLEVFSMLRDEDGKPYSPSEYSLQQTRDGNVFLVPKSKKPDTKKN

[2] = Antioxidant activity assessed as DPPH radical scavenging activity; assay type: functional
[3] = biological target: T1, Nuclear factor erythroid 2-related factor 2 (Mus musculus); test: Activation of Nrf2 in mouse Hepa1c1c7 cells assessed as increase in NQO1 activity at 2.5 uM; assay type: cell-based; conditions: filed as activator
[4] = biological target: T1, Nuclear factor erythroid 2-related factor 2 (Mus musculus); test: Activation of Nrf2 in mouse Hepa1c1c7 cells assessed as increase in NQO1 activity at 0.313 uM; assay type: cell-based; conditions: filed as activator
[5] = biological target: T1, Nuclear factor erythroid 2-related factor 2 (Mus musculus); test: Activation of Nrf2 in mouse Hepa1c1c7 cells assessed as increase in NQO1 activity at 0.625 uM; assay type: cell-based; conditions: filed as activator
[6] = biological target: T1, Nuclear factor erythroid 2-related factor 2 (Mus musculus); test: Activation of Nrf2 in mouse Hepa1c1c7 cells assessed as increase in NQO1 activity at 1.25 uM; assay type: cell-based; conditions: filed as activator
[7] = biological target: T1, Nuclear factor erythroid 2-related factor 2 (Mus musculus); test: Activation of Nrf2 in mouse Hepa1c1c7 cells assessed as increase in NQO1 activity at 1.9 uM; assay type: cell-based; conditions: filed as activator
[8] = biological target: T1, Nuclear factor erythroid 2-related factor 2 (Mus musculus); test: Activation of Nrf2 in mouse Hepa1c1c7 cells assessed as increase in NQO1 activity at 0.2 uM; assay type: cell-based; conditions: filed as activator
[9] = biological target: T1, Nuclear factor erythroid 2-related factor 2 (Mus musculus); test: Activation of Nrf2 in mouse Hepa1c1c7 cells assessed as increase in NQO1 activity at 0.9 uM; assay type: cell-based; conditions: filed as activator
[10] = biological target: T1, Nuclear factor erythroid 2-related factor 2 (Mus musculus); test: Activation of Nrf2 in mouse Hepa1c1c7 cells assessed as increase in NQO1 activity at 0.5 uM; assay type: cell-based; conditions: filed as activator
[11] = biological target: T1, Nuclear factor erythroid 2-related factor 2 (Mus musculus); test: Activation of Nrf2 in mouse Hepa1c1c7 cells assessed as increase in NQO1 activity at 15 uM; assay type: cell-based; conditions: filed as activator
[12] = biological target: T1, Nuclear factor erythroid 2-related factor 2 (Mus musculus); test: Activation of Nrf2 in mouse Hepa1c1c7 cells assessed as increase in NQO1 activity at 30 uM; assay type: cell-based; conditions: filed as activator
[13] = biological target: T1, Nuclear factor erythroid 2-related factor 2 (Mus musculus); test: Activation of Nrf2 in mouse Hepa1c1c7 cells assessed as increase in NQO1 activity at 7.5 uM; assay type: cell-based; conditions: filed as activator
[14] = biological target: T1, Nuclear factor erythroid 2-related factor 2 (Mus musculus); test: Activation of Nrf2 in mouse Hepa1c1c7 cells assessed as increase in NQO1 activity at 3.75 uM; assay type: cell-based; conditions: filed as activator
[15] = biological target: T1, Nuclear factor erythroid 2-related factor 2 (Mus musculus); test: Activation of Nrf2 in mouse Hepa1c1c7 cells assessed as increase in NQO1 activity at 20 uM; assay type: cell-based; conditions: filed as activator
[16] = biological target: T1, Nuclear factor erythroid 2-related factor 2 (Mus musculus); test: Activation of Nrf2 in mouse Hepa1c1c7 cells assessed as increase in NQO1 activity at 40 uM; assay type: cell-based; conditions: filed as activator
[17] = biological target: T1, Nuclear factor erythroid 2-related factor 2 (Mus musculus); test: Activation of Nrf2 in mouse Hepa1c1c7 cells assessed as increase in NQO1 activity at 10 uM; assay type: cell-based; conditions: filed as activator
[18] = biological target: T1, Nuclear factor erythroid 2-related factor 2 (Mus musculus); test: Activation of Nrf2 in mouse Hepa1c1c7 cells assessed as increase in NQO1 activity at 3.125 uM; assay type: cell-based; conditions: filed as activator
[19] = biological target: T1, Nuclear factor erythroid 2-related factor 2 (Mus musculus); test: Activation of Nrf2 in mouse Hepa1c1c7 cells assessed as increase in NQO1 activity at 50 uM; assay type: cell-based; conditions: filed as activator
[20] = biological target: T1, Nuclear factor erythroid 2-related factor 2 (Mus musculus); test: Activation of Nrf2 in mouse Hepa1c1c7 cells assessed as increase in NQO1 activity at 1.6 uM; assay type: cell-based; conditions: filed as activator
[21] = biological target: T1, Nuclear factor erythroid 2-related factor 2 (Mus musculus); test: Activation of Nrf2 in mouse Hepa1c1c7 cells assessed as increase in NQO1 activity at 0.4 uM; assay type: cell-based; conditions: filed as activator
[22] = biological target: T1, Nuclear factor erythroid 2-related factor 2 (Mus musculus); test: Activation of Nrf2 in mouse Hepa1c1c7 cells assessed as increase in NQO1 activity at 25 uM; assay type: cell-based; conditions: filed as activator
[23] = biological target: T1, Nuclear factor erythroid 2-related factor 2 (Mus musculus); test: Activation of Nrf2 in mouse Hepa1c1c7 cells assessed as increase in NQO1 activity at 12.5 uM; assay type: cell-based; conditions: filed as activator
[24] = biological target: T1, Nuclear factor erythroid 2-related factor 2 (Mus musculus); test: Activation of Nrf2 in mouse Hepa1c1c7 cells assessed as increase in NQO1 activity at 0.8 uM; assay type: cell-based; conditions: filed as activator
[25] = biological target: T1, Nuclear factor erythroid 2-related factor 2 (Mus musculus); test: Activation of Nrf2 in mouse Hepa1c1c7 cells assessed as increase in NQO1 activity at 6.25 uM; assay type: cell-based; conditions: filed as activator

Compound: NS(=O)(=O)c1ccc(-n2c(SCC(=O)Nc3ccccn3)nc3c(I)cc(I)cc3c2=O)cc1
- Activity [1]: 0.51
- IC50 [2]: 85 µM
- Activity [3]: 0.76
- Activity [4]: 0.96
- Activity [5]: 0.94
- Activity [6]: 0.83

Compound: NS(=O)(=O)c1ccc(-n2c(SCC(=O)Nc3cccnc3)nc3c(I)cc(I)cc3c2=O)cc1
- Activity [7]: 0.99
- Activity [8]: 1
- Activity [9]: 1
- IC50 [2]: 165 µM
- Activity [10]: 0.99
- Activity [11]: 1.19
- Activity [12]: 1.35
- Activity [13]: 1.07
- Activity [14]: 1.03

Compound: NS(=O)(=O)c1ccc(-n2c(SCC(=O)Nc3cc(Cl)c(Cl)cc3Cl)nc3c(I)cc(I)cc3c2=O)cc1
- Activity [15]: 1.25
- Activity [1]: 1.08
- IC50 [2]: 59.8 µM
- Activity [16]: 1.3
- Activity [17]: 1.1
- Activity [3]: 1.07
- Activity [4]: 1.01
- Activity [5]: 1.03
- Activity [6]: 1.05

Compound: NS(=O)(=O)c1ccc(-n2c(SCC(=O)Nc3ccc(F)cc3)nc3c(I)cc(I)cc3c2=O)cc1
- Activity [18]: 0.99
- Activity [19]: 1.19
- Activity [20]: 0.99
- Activity [21]: 0.98
- Activity [22]: 1.13
- IC50 [2]: 158 µM
- Activity [23]: 1.06
- Activity [24]: 1
- Activity [25]: 1

Compound: NS(=O)(=O)c1ccc(-n2c(SCC(=O)Nc3cccc(F)c3)nc3c(I)cc(I)cc3c2=O)cc1
- Activity [7]: 1.06
- Activity [8]: 1.01
- Activity [9]: 1.07
- IC50 [2]: 59.4 µM
- Activity [10]: 1.04
- Activity [11]: 1.31
- Activity [12]: 1.47
- Activity [13]: 1.21
- Activity [14]: 1.1

Compound: NS(=O)(=O)c1ccc(-n2c(SCC(=O)Nc3ccccc3F)nc3c(I)cc(I)cc3c2=O)cc1
- Activity [7]: 1.12
- Activity [8]: 1.05
- Activity [9]: 1.11
- IC50 [2]: 98.9 µM
- Activity [10]: 1.06
- Activity [11]: 1.8
- Activity [13]: 1.23
- Activity [14]: 1.13

Compound: NS(=O)(=O)c1ccc(-n2c(SCC(=O)Nc3ccncc3)nc3c(I)cc(I)cc3c2=O)cc1
- Activity [18]: 1.06
- Activity [19]: 1.89
- Activity [20]: 1.02
- Activity [21]: 1.04
- Activity [22]: 1.65
- IC50 [2]: 112 µM
- Activity [23]: 1.31
- Activity [24]: 1
- Activity [25]: 1.15

Compound: O=C1O[C@H]([C@@H](O)CO)C(O)=C1O [ASCORBIC ACID]
- IC50 [2]: 128 µM
